Source: patent publication US11648220B2, “Methods for the treatment of myeloid derived suppressor cells related disorders” (The Rockefeller University, priority 2016, dated 2023)

Assays:
LXRβ = biological target: T1, LXRβ (Homo sapiens, UniProt P55055); test: ligand sensing assay (LiSA), LXRβ; assay type: biochemical
T1 sequence (P55055 1-460): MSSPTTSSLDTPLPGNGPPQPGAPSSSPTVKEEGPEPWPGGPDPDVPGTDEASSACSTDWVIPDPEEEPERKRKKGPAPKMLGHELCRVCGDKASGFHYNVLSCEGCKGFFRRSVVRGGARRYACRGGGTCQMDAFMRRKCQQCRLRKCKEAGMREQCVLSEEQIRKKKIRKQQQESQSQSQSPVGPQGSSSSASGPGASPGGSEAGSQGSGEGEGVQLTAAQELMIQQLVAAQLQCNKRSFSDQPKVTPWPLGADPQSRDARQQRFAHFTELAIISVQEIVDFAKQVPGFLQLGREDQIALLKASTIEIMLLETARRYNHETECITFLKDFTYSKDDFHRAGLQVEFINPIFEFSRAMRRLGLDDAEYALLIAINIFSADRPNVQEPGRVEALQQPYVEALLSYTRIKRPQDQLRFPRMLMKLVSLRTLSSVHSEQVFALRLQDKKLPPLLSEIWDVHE
Excerpt: As used herein, reference to the activity of an LXR agonist at LXRα and LXRβ refer to the activity as measured using the ligand sensing assay (LiSA) described in Spencer et al. Journal of Medicinal Chemistry 2001, 44, 886-897, incorporated herein by reference. […] For example, the methods of the invention can be performed using an LXRβ agonist having activity for LXRβ that is at least 3-fold greater than the activity of the agonist for LXRα, or having activity for LXRβ that is at least 10-fold greater than the activity of the agonist for LXRα, or having activity for LXRβ that is at least 100-fold greater than the activity of said agonist for LXRα, or having activity for LXRβ that is at least within 3-fold of the activity of the agonist for LXRα. The term “greater activity” in the LiSA assay refers to a lower EC50.

[1] = tested on: myeloid-derived suppressor cells (MDSCs) in B16F10 melanoma; test: tumor-infiltrating MDSCs in B16F10 tumor-bearing mice (flow cytometry, Gr1 immunohistochemistry); assay type: in vivo
Method: (§1) All mouse studies were conducted according to a protocol approved by the Institutional Animal Care and Use Committee at the Rockefeller University. C57BL/6 mice were obtained from the Jackson Laboratory. For experiments testing the effect of LXR agonists on tumor growth, mice were assigned to a control chow or a chow supplemented with compound 682 (Sigma-Aldrich) or compound 705 (Rgenix, Inc.) at 50, or 100 mg/kg/day, as indicated. For combination drug regimens, mice were fed a compound 705-supplemented diet and co-treated with anti-PD-1 antibody (clone RMP1-14 BioXcell), 10 mg/kg by i.p. injection every 3 days for 3 total doses starting on the day of tumor injection. All drug-formulated diets were prepared by Research Diets.
All mouse studies were conducted according to a protocol approved by the Institutional Animal Care and Use Committee at the Rockefeller University. […]
(§2) At the indicated day, tumors were isolated from euthanized mice and minced into small (˜1 mm^2) pieces with a scalpel and then enzymatically dissociated. […] After staining, cells were subsequently analyzed by flow cytometry using an LSRII flow cytometer (BD Biosciences). Data was analyzed using FlowJo software. […]
At the indicated day, blood was drawn from mice and treated with RBC Lysis Buffer (Sigma) followed by filtration through a […] filter (Corning Inc) to obtain a single cell suspension of lymphocytes. […] After staining, cells were subsequently analyzed by flow cytometry using an LSRII flow cytometer (BD Biosciences). Data was analyzed using FlowJo software.
For MDSC quantification studies, frozen tumor sections (no fixation) were stained with an antibody against Gr1 (1:1000; BioXcell). […]

[2] = tested on: activated CD8+ T-cells in B16F10 melanoma; test: tumor-infiltrating activated CD8+ T-cells in B16F10 tumor-bearing mice (flow cytometry); assay type: in vivo; conditions: supplemented diet 100 mg/kg/day, tumors isolated day 12-14
Method: All mouse studies were conducted according to a protocol approved by the Institutional Animal Care and Use Committee at the Rockefeller University. C57BL/6 (WT); and Pmel (B6.Cg-Thy1^a/Cy Tg(TcraTcrb)8Rest/J mice were obtained from the Jackson Laboratory. To determine the effect of LXR agonists on in vivo primary tumor growth, mice were injected with 5×10^4 B16F10 melanoma cells. For all tumor growth experiments, cells (suspension in […] of PBS) were mixed 1:1 with matrigel (356231, BD Biosciences, Bedford, Mass.) and subcutaneously injected into the lower flank of 6-8 week-old sex-matched mice. Following formation of tumors, mice were assigned to the following treatment groups as described below. All drug-formulated diets were prepared by Research Diets. […]
as §2
After tumor cell injection, animals were palpated every two days for tumor formation. […] Tumor dimensions were measured using digital calipers, and tumor volume was calculated as (small diameter)^2×(large diameter)/2. […]

MDSCs = test: MDSC abundance assay; assay type: cell-based, mice; conditions: 1 μM, 3 hours
Method: MDSCs were isolated from the spleens of tumor-bearing wild-type or ApoE−/− mice, as indicated, using the MACS Myeloid-Derived Suppressor Cell Isolation Kit (Miltenyi Biotech) according to manufacturer's protocol. MDSCs were then incubated in RPMI (Sigma) supplemented with 10% FBS and either COMPOUND 705 (dissolved in 2% DMSO at the indicated concentration) or control (2% DMSO) and subsequently incubated at 37° C. for the indicated time. Abundance was assessed by quantifying the percent of live cells using propidium Iodide staining. […]

[3] = tested on: CD8+ T-cells co-cultured with MDSCs; test: T-cell suppression assay; assay type: cell-based; conditions: 24 hours co-culture with MDSCs from treated tumor-bearing mice
Method: CD8+ cells were purified from single cell suspensions from spleens of mice using the MACS CD8+ T-cell isolation kit (Miltenyi Biotech) according to manufacturer's protocol. Cells were then labeled with cell tracker reagent (BV). The labeled CD8+ T cells were plated on 96-well plates coated with 1 mg/ml anti-CD3 and anti-CD28 beads (Dynabeads® Mouse T-Activator CD3/CD28 for T-Cell Expansion and Activation; Gibco). Recombinant IL-2 (Gibco) was then added to the wells according to manufacturer's protocol. MDSC were then isolated using the MACS Myeloid-Derived Suppressor Cell Isolation Kit (Miltenyi Biotech) according to manufacturer's protocol and subsequently added in the indicated MDSC:T-cell ratios. Cells were incubated at 37° C. for 24-36 hours. T-cell activation was measured by flow cytometry by assessing the percent of T-cells positive for IFNγ staining with diluted BV dye.

B16F10 melanoma [4] = test: B16F10 tumors, compound 705 plus anti-PD-1 antibody; assay type: in vivo, mice; conditions: B16F10, diet 50 mg/kg/day plus anti-PD-1 antibody 10 mg/kg I.P. every 3 days
Method: as §1, with “Diets. […]” for “Diets.”
as §2
After tumor cell injection, animals were treated with anti-PD-1 antibody at a dose of 10 mg/kg (clone RMP1-14; BioXcell), by intraperitoneal (I.P.) injection every 3 days for 3 total doses starting on the day of tumor injection. […] Tumor dimensions were measured using digital calipers, and tumor volume was calculated as (small diameter)^2×(large diameter)/2. […]

B16F10 melanoma [5] = test: B16F10 tumors, compound 705 plus adoptive transfer of Pmel CD8+ T-cells (survival); assay type: in vivo, mice; conditions: B16F10, diet 50 mg/kg/day plus 2×10^6 Pmel CD8+ T-cells
Method: All mouse studies were conducted according to a protocol approved by the Institutional Animal Care and Use Committee at the Rockefeller University. C57BL/6 (WT); and Pmel (B6.Cg-Thy1^a/Cy Tg(TcraTcrb)8Rest/J mice were obtained from the Jackson Laboratory. To determine the effect of LXR agonists on in vivo primary tumor growth, mice were injected with 5×10^4 B16F10 melanoma cells. For all tumor growth experiments, cells (suspension in […] of PBS) were mixed 1:1 with matrigel (356231, BD Biosciences, Bedford, Mass.) and subcutaneously injected into the lower flank of 6-8 week-old sex-matched mice. Following formation of tumors, mice were assigned to the following treatment groups as described below. All drug-formulated diets were prepared by Research Diets. After the indicated number of days, either peripheral blood or tumors were isolated to obtain tumor-infiltrating lymphocytes for flow-cytometry analysis as described below.
After tumor cell injection, tumor volumes were measured every two days. Upon tumors measuring 90-100 mm^3 in volume (day 6-7), mice were randomly assigned to a control diet treatment or a COMPOUND 705-supplemented diet (50 mg/kg/day; Rgenix).
The following day, 2×10^6 CD8+ T-cells from Pmel mice were adoptively transferred via retro-orbital injection into both control and COMPOUND 705 treated mice. […]

LXRα = biological target: T2, LXRα (Homo sapiens, UniProt Q13133); conditions: cited from earlier work
T2 sequence (Q13133 1-447): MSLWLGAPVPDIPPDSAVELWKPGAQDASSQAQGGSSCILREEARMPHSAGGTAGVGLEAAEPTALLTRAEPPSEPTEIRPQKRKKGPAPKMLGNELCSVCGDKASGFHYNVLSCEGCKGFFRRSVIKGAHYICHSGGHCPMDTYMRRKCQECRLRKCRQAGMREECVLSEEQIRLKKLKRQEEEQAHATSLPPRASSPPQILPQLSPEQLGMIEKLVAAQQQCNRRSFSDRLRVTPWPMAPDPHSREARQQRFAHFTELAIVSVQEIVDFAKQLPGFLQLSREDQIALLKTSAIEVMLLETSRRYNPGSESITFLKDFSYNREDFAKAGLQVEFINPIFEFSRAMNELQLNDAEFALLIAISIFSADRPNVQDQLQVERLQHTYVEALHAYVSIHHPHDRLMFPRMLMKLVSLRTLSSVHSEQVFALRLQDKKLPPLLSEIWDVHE

[6] = daily I.P. injection 2 mg, day 12-14

SMILES: O=C(O)Cc1cccc(OCCCN(Cc2cccc(C(F)(F)F)c2Cl)CC(c2ccccc2)c2ccccc2)c1 [Compound 682]
- fold greater activity for LXRβ compared to LXRα (LXRβ): approximately 6 fold
- number of tumor-infiltrating myeloid-derived suppressor cells (MDSCs) ([1]; supplemented diet 100 mg/kg/day, tumors isolated day 12-14): reduces the number of tumor-infiltrating myeloid-derived suppressor cells
- number of tumor-infiltrating activated CD8+ T-cells [2]: increases the number of tumor-infiltrating activated CD8+ T-cells

SMILES: CC(CCOc1cccc(CC(=O)O)c1)N(Cc1cccc(C(F)(F)F)c1Cl)CC(c1ccccc1)c1ccccc1 (stereo not shown) [Compound 705]
- number of granulocytic MDSCs (G-MDSC) [1, 6]: reduces the number
- number of monocytic MDSCs (M-MDSC) [1, 6]: reduces the number
- abundance of MDSCs in vitro (MDSCs): reduces abundance of MDSCs in vitro
- MDSC-mediated suppression of CD8+ T-cells [3]: reverses MDSC-mediated suppression of CD8+ T-cells
- anti-tumor T-cell response induced with anti-PD-1 antibody therapy (B16F10 melanoma [4]): enhances the anti-tumor T-cell response
- anti-tumor activity of adoptively transferred melanoma-targeting CD8+ T-cells (B16F10 melanoma [5]): enhances the anti-tumor activity

SMILES: CC(C)(O)c1cn(-c2ccc(-c3cccc(S(C)(=O)=O)c3)cc2)c(C(C)(C)c2ccccc2Cl)n1 [Compound 718]
- EC50 (LXRα): 0.101 to 1 µM
